Results on five compounds are retold here after patent US9745274B2, “Compound, organic cation transporter 3 detection agent, and organic cation transporter 3 activity inhibitor” (SHIN NIPPON BIOMEDICAL LABORATORIES, LTD., priority 2013, dated 2017).

SMILES strings stand for the structures. Where two headings read alike, the source gives them in different places.

The test system of one assay is Male ddY-strain mice. In words: Forced swimming test (akinesis time). It is filed as in vivo, mouse. The following applies: low dose administered independently: imipramine 4 mg/kg or OCT3 inhibitor 0.25 μl/hr.
Assay [1] has as its target T1, human organic cation transporter 3 (hOCT3) (Homo sapiens, UniProt O75751).
T1 construct: expressed in transfected cells; host or cells: HEK293
T1 sequence (O75751 1-556): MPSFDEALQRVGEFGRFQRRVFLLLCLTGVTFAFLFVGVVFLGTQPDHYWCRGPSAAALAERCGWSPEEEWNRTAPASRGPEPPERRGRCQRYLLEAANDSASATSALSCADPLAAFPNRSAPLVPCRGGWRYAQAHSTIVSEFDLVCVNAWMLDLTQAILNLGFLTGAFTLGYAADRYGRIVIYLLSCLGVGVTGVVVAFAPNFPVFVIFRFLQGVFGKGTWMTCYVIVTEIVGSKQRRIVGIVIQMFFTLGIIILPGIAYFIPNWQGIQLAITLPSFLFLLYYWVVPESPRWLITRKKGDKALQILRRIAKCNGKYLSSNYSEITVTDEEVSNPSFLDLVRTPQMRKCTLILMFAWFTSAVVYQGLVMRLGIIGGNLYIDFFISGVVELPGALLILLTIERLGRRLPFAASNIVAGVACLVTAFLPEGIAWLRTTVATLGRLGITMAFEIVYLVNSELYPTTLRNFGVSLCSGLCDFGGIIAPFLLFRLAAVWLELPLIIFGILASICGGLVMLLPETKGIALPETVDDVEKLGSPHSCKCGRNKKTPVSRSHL
As to the kind of experiment: Histamine incorporation experiment in HEK293 cells expressing hOCT3 (OCT3 inhibition activity). The format is cell-based. The following applies: for remaining activity at 10 µM / remaining activity at 30 µM: HEK293, 1 min, no inhibitor = 100%, read-out: Histamine Incorporation Rate to Control (%); for remaining activity at 10 µM / inhibition at 10 µM: Compound Concentration 10 μM; for remaining activity at 30 µM / inhibition at 30 µM: Compound Concentration 30 μM; for remaining activity at 30 µM: [3H]histamine 100 nM, 1 minute; for inhibition at 10 µM / inhibition at 30 µM: HEK293, 100% minus histamine incorporation rate. Here is the method: In order to measure an activity that inhibits OCT3 from incorporating a substrate (OCT3 inhibition activity) for each compound, histamine incorporation experiments as described below were performed.
Histamine incorporation experiments were performed in accordance with a method disclosed in Br J Pharmacol. 2002; 136(6): 829-836. In the experiments, HEK293 cells were used. The HEK293 cell is a human embryonal renal cell strain expressing human organic cation transporter 3 (hOCT3). The HEK 293 cells were inoculated onto 24-well plates at 1.5×10^5 cells/well, and were cultivated overnight in a carbon dioxide incubator. Test substances were dissolved in 100% DMSO solution and then dissolved in HBSS-HEPES solution (buffer solution prepared by dissolving 9.7 g Hank's Balanced Salt, 1.4% sodium bicarbonate 25 mL, and 1M HEPES 25 mL in 940 mL ultra pure water, and by adjusting to pH7.4 with 1M sodium hydroxide). After removing culture media for cell culture, pretreatment was performed for 5 minutes with 1 mL HBSS-HEPES solution. Then, the test substance and [3H]histamine (final concentration 100 nM) were added to the cells and reacted for 1 minute at room temperature. After the reaction was completed, the reaction was stopped by ice-cooled HBSS-HEPES solution, extracellular fluid was aspirated by an aspirator, and then the cells were washed twice with HBSS-HEPES. After washing, the cells were dissolved in 0.5M sodium hydroxide solution. The amount of histamine in the cells was found by measuring a radioactivity in a cell lysis solution by a liquid scintillation counter. Protein content in the cells was measured by Lowry method (J Biol Chem. 1951; 193(1): 265-75) by using the cell lysis solution, and translated into histamine incorporation amount per protein content for each experiment. A histamine incorporation rate (%) in the presence of 30 μM of the test substance was calculated by regarding a histamine incorporation amount in a case of no incorporation inhibitor as 100% (control) of histamine incorporation rate. A value (%) obtained by subtracting the histamine incorporation rate from 100(%) was calculated as an OCT3 inhibition rate (%).
Note that a histamine incorporation rate (%) in the presence of 10 μM of the test substance was calculated by regarding a histamine incorporation amount in a case of no incorporation inhibitor as 100% (control) of histamine incorporation rate. A value (%) obtained by subtracting the histamine incorporation rate from 100(%) was calculated as an OCT3 inhibition rate (%). […]

Assay [2] deals with T1, human organic cation transporter 3 (hOCT3). Described as above. The format is cell-based. The following applies: control curve; for IC80: HEK293.
Another assay deals with T2, OCT3 (Homo sapiens, UniProt O75751).
T2 sequence (O75751 1-556): T1 sequence (O75751 1-556)
The following applies: Sata et al., J Pharmacol Exp Ther. 2005, cited from earlier work.

The conditions of assay [3]: various diagnostic methods in clinical trials, WO 01/93863; cited from earlier work.

Excerpt for Male ddY-strain mice: In the forced swimming test, forced swimming is loaded on a mouse or rat as a test animal in a test tank from which the mouse or rat cannot escape. Then, after an escape behavior of the test animal, an akinesis (a state in which the test animal is floating with only its face out over the surface of the water and without moving legs) is confirmed. When the test animal is put in the test tank again after 24 or more hours later, the akinesis is expressed earlier than the first test. Duration of the akinesis within a predetermined time period (generally about 5 minutes) is reproduced relatively accurately.
Specifically, a test is performed as follows.
Male ddY-strain mice (Japan SLC, Inc.) having body weights of 28 to 33 g are used for an experiment. […] In the first forced swimming test, all of the laboratory mice are made to swim in a glass cylinder (diameter 15.5 cm, depth 17 cm, depth of water 12 cm, temperature of water 25° C.) for 300 seconds, the akinesis time are measured, and the mice are divided into experimental groups (OCT3 inhibitor administration group, positive control group, and negative control group) so that average values of these groups are almost identical. […] After one week from the injection, the mice are made to swim in the cylinder again for 300 seconds, and the akinesis time is measured for each of the mice. […]

Regarding `CN(C)CCCN1c2ccccc2CCc2ccccc21` [imipramine], the “average of the akinesis time” value in the assay with Male ddY-strain mice is “about 200 seconds”.

With `Cc1nc(CCSCc2ccnc(N=C(N)N)c2)[nH]c(=O)c1CCc1ccccc1` [SR-2219], in assay [1], the remaining activity at 10 µM is 51.5%, the remaining activity at 30 µM was determined as 22.6%, the inhibition at 10 µM was 48.5% and the inhibition at 30 µM turned out to be 77.4%. Also, in assay [2], the IC80 is 49 µM and half-maximal inhibition (IC50) required 19 µM.

For `NC(N)=Nc1cc(CSCC/C(N)=N/S(=O)(=O)C(F)(F)F)ccn1` [SR-2023], in assay [1], the remaining activity at 10 µM was 36.7%, the remaining activity at 30 µM came to 15%, at 10 µM the inhibition was 63.3% and the inhibition at 30 µM is 85%. Further, in assay [2], the IC80 was 28 µM and the IC50 was 6.5 µM.

`NC(N)=Nc1nc(CSCCC(N)=NS(N)(=O)=O)cs1` [FAMOTIDINE, famotidine, reference compound]: in assay [1], the remaining activity at 10 µM stood at 92.4% and the inhibition at 10 µM was 7.6%. In assay [2], this compound had an IC80 of 330 µM and an IC50 of 67.6 µM. Moreover, the “OCT3 inhibition activity (in words)” value on OCT3 (listed as Famotidine) is reported as “strong OCT3 inhibition activity”. Further, the “OCT3 inhibition activity (in words)” value at OCT3 (listed as famotidine) is “strong OCT3 activity inhibition action”. For the same compound, the antidepressant activity result in assay [3] is “antidepressant activity is confirmed”.

Consider `NC(N)=Nc1nc(CCCC/C(N)=N/S(=O)(=O)C(F)(F)F)cs1` [SR-2065], for which, in assay [1], the remaining activity at 10 µM was found to be 72.9%, the remaining activity at 30 µM turned out to be 41.5%, 10 µM produced 27.1% inhibition and 30 µM produced 58.5% inhibition. In assay [2], the IC80 came out at 90 µM and half-maximal inhibition (IC50) required 24 µM.
